Test results taken from patent US20240238422A1 (Osprey Biopharmaceuticals, Inc., priority 2021, published 2024).

Experiments:
[1] = tested on: Siglec-2 (CD22); conditions: SAM for Siglec-2 (CD22); value of the cited reference; cited from earlier work
[2] = molecular target: T1, mouse CD22 (Mus musculus, UniProt P35329); test: SPR binding of synthetic Siglec ligands to mouse CD22 ectodomain (Biacore 8K+); conditions: for Kd: SPR, alkyne-terminating precursors of the PFP linkers, read-out: Mouse Siglec-2 Binding Affinity; for Mouse Siglec-2 Binding Affinity: grade in words for the conjugatable Siglec ligand-linker
T1 construct: synthetic Siglec ligands for recombinant human and mouse CD22 ectodomains
T1 sequence (P35329 22-708 limits assumed): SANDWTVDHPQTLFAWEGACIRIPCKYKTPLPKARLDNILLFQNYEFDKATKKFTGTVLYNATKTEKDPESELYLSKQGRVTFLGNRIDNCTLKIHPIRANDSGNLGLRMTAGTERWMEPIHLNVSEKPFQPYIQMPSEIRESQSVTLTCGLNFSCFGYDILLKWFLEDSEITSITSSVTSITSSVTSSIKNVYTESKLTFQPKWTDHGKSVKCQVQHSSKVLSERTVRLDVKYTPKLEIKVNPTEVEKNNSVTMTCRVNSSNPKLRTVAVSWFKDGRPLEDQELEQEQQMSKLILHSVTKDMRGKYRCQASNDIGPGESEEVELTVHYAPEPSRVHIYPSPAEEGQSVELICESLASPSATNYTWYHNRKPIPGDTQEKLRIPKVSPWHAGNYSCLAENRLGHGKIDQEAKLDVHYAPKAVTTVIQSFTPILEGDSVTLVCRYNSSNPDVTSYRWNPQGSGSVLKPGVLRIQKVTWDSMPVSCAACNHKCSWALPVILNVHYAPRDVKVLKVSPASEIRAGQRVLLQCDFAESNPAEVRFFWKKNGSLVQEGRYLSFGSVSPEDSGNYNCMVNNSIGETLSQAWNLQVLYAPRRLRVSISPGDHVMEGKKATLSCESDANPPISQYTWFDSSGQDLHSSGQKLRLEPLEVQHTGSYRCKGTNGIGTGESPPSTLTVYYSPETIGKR
Experimental: (§1) The following ligands were evaluated for mouse and human CD22 binding: 1) BPC-Neu5Gc PEG (Cpd. No. 26463), 2) BPC-Neu5Gc GAL (Cpd. No. 26339), 3) MPB-Neu5Ac PEG (Cpd. No. 26334), 4) MPB-Neu5Ac GAL (Cpd. No. 26409), 5) Neu5Gc PEG (Cpd. No. 26591). All tested compounds are alkyne-terminating precursors of PFP-terminating, conjugatable Siglec Linker structures used in conjugates in the following examples.
(§2) Binding assays for synthetic CD22 ligand binding to CD22 receptor ectodomain were run on a Biacore 8K+ instrument (Cytiva). Surface preparation for CD22 conjugates binding to human or mouse CD22 protein consisted of two steps, covalent immobilization of streptavidin followed by capture of Avi-tagged and biotinylated human CD22-Fc fusion (R&D Systems, Cat #AV11968-050) and a mono-Fc fusion of mouse CD22. Using standard amine coupling protocols, Streptavidin (Invitrogen, Cat #: 434301) was immobilized to a Cytiva CM5 chip (Cytiva, Cat #BR100530) by injecting at 100 ug/mL in Sodium Acetate, pH 4.5 (Cytiva, Cat #BR100350) on both flow cells, yielding a final response of 2500 RU. Capture of biotinylated mono Fc human CD22 was performed on channels 1-4 and mouse CD22 on channels 5-8 on the active flow cell (2) and the reference flow cell (1) was kept as unmodified streptavidin to account for any non-specific binding. Human CD22 or mouse CD22 (mono-Fc fusion, 5 μg/mL) was injected on the active flow cell (2) for 90 seconds at 5 μL/min, yielding about 210 RU of captured constructs.
(§3) Binding experiments of Siglec-ligand conjugated proteins were performed on the surfaces prepared above in HBS-EP+ (10 mM HEPES, 150 mM NaCl, 3 mM EDTA, 0.05% Tween-20, pH 7.5) as the running buffer. Conjugates were serially diluted 1:1 in running buffer from 1 μM to 31.25 nM and injected over both the reference and active flow cells for 90 seconds at 30 μL/min. The conjugates were then allowed to dissociate from the surface for 300 seconds. No regeneration was required as the conjugates completely dissociated from the surface after 30 seconds.

[3] = molecular target: T2, human CD22 (Homo sapiens, UniProt P20273); test: SPR binding of synthetic Siglec ligands to human CD22 ectodomain (Biacore 8K+); conditions: for Kd: SPR, alkyne-terminating precursors of the PFP linkers, read-out: Human Siglec-2 Binding Affinity; for Human Siglec-2 Binding Affinity: grade in words for the conjugatable Siglec ligand-linker
T2 construct: Fc (human CD22-Fc fusion); purchased R&D Systems AV11968-050
Experimental: as §1, §2, §3

T2 sequence (P20273 20-687 limits assumed): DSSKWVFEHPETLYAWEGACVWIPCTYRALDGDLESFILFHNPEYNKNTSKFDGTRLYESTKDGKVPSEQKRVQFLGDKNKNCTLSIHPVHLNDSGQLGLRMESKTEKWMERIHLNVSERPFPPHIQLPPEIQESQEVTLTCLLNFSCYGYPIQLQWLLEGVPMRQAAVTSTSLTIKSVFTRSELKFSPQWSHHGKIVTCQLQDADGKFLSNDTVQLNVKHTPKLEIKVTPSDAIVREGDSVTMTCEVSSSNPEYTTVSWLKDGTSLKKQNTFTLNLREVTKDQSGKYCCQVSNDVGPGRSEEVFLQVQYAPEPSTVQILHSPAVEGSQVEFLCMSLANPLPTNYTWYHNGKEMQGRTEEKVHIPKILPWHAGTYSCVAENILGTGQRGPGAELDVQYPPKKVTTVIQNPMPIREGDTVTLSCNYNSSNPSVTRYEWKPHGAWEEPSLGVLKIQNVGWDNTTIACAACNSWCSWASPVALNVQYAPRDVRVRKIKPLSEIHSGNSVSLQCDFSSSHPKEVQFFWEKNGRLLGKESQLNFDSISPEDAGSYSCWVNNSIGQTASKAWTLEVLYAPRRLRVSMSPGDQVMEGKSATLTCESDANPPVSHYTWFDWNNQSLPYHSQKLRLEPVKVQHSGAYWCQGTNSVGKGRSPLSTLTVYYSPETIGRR

| Structure (SMILES) | Kd [2] [µM] | Kd [3] [µM] | Mouse Siglec-2 Binding Affinity [2] | Human Siglec-2 Binding Affinity [3] | IC50 [1] [µM] |
| --- | --- | --- | --- | --- | --- |
| CO[C@]1(C(=O)O)CC(O)[C@@H](NC(C)=O)C([C@H](O)[C@H](O)CNC(=O)c2ccc(-c3ccccc3)cc2)O1 (some centres unmarked) |  |  |  |  | 4 |
| O=C(Cc1ccc(-c2ccc(O)cc2)cc1)NC[C@@H](O)C(O)C1O[C@@](OCc2cccc(Cl)c2Cl)(C(=O)O)CC(O)[C@H]1NS(=O)(=O)c1ccccc1[N+](=O)[O-] (some centres unmarked) |  |  |  |  | 0.06 |
| CO[C@]1(C(=O)O)CC(NS(=O)(=O)c2ccc(C)cc2)[C@@H](NC(C)=O)C([C@H](O)[C@H](O)CNC(=O)c2ccc(-c3ccccc3)cc2)O1 (some centres unmarked) |  |  |  |  | 0.15 |
| O=C(CCOCCOCCn1cc(COCCOCCO[C@]2(C(=O)O)C[C@H](O)[C@@H](NC(=O)CO)[C@H]([C@H](O)[C@H](O)CNC(=O)Cc3ccc(-c4ccccc4)cc3)O2)nn1)NCCCC[C@H](NC(=O)CCCNC(=O)CCOCCOCCn1cc(COCCOCCO[C@]2(C(=O)O)C[C@H](O)[C@@H](NC(=O)CO)[C@H]([C@H](O)[C@H](O)CNC(=O)Cc3ccc(-c4ccccc4)cc3)O2)nn1)C(=O)N[C@@H](CCCCNC(=O)CCOCCOCCn1cc(COCCOCCO[C@]2(C(=O)O)C[C@H](O)[C@@H](NC(=O)CO)[C@H]([C@H](O)[C@H](O)CNC(=O)Cc3ccc(-c4ccccc4)cc3)O2)nn1)C(=O)NCCOCCOCCOCCOCCC(=O)Oc1c(F)c(F)c(F)c(F)c1F [Cpd. No. 26477] |  |  | Strong | Strong |  |
| O=C(CCOCCOCCOCCOCCn1cc(COCCOCCOCCOCCO)nn1)Oc1c(F)c(F)c(F)c(F)c1F [Cpd. No. 26530, perfluorophenyl 1-(4-(13-hydroxy-2,5,8,11-tetraoxatridecyl)-1H-1,2,3-triazol-1-yl)-3,6,9,12-tetraoxapentadecan-15-oate] |  |  | No Binding | No Binding |  |
| O=C(CCOCCOCCn1cc(COCCOCCOCCOCCO)nn1)NCCCC[C@@H](NC(=O)CCCNC(=O)CCOCCOCCn1cc(COCCOCCOCCOCCO)nn1)C(=O)N[C@H](CCCCNC(=O)CCOCCOCCn1cc(COCCOCCOCCOCCO)nn1)C(=O)NCCOCCOCCOCCOCCC(=O)Oc1c(F)c(F)c(F)c(F)c1F [Cpd. No. 26534, perfluorophenyl (16R,19R)-1-(4-(13-hydroxy-2,5,8,11-tetraoxatridecyl)-1H-1,2,3-triazol-1-yl)-16,19-bis(4-(3-(2-(2-(4-(13-hydroxy-2,5,8,11-tetraoxatridecyl)-1H-1,2,3-triazol-1-yl)ethoxy)ethoxy)propanamido)butyl)-9,14,17,20-tetraoxo-3,6,24,27,30,33-hexaoxa-10,15,18,21-tetraazahexatriacontan-36-oate] |  |  | No Binding | No Binding |  |

Further lines, with some results ahead:

| Kd [2] [µM] | Kd [3] [µM] | Mouse Siglec-2 Binding Affinity [2] | Human Siglec-2 Binding Affinity [3] | Structure (SMILES) | IC50 [1] [µM] |
| --- | --- | --- | --- | --- | --- |
| 9.6 | 1.3 |  |  | C#CCOCCOCCO[C@]1(C(=O)O)C[C@H](O)[C@@H](NC(=O)CO)[C@H]([C@H](O)[C@H](O)CNC(=O)Cc2ccc(-c3ccccc3)cc2)O1 [Cpd. No. 26463, (2R,4S,5R,6R)-6-((1R,2R)-3-(2-([1,1′-biphenyl]-4-yl)acetamido)-1,2-dihydroxypropyl)-4-hydroxy-5-(2-hydroxyacetamido)-2-(2-(2-(prop-2-yn-1-yloxy)ethoxy)ethoxy)tetrahydro-2H-pyran-2-carboxylic acid] |  |
|  |  | Strong | Strong | O=C(CCOCCOCCn1cc(COCCOCCO[C@]2(C(=O)O)C[C@H](O)[C@@H](NC(=O)CO)[C@H]([C@H](O)[C@H](O)CNC(=O)Cc3ccc(-c4ccccc4)cc3)O2)nn1)NCCCC[C@H](NC(=O)CCCNC(=O)CCOCCOCCn1cc(COCCOCCO[C@]2(C(=O)O)C[C@H](O)[C@@H](NC(=O)CO)[C@H]([C@H](O)[C@H](O)CNC(=O)Cc3ccc(-c4ccccc4)cc3)O2)nn1)C(=O)NCCOCCOCCOCCOCCC(=O)Oc1c(F)c(F)c(F)c(F)c1F [Cpd. No. 26475] |  |
|  |  | No Binding | No Binding | O=C(CCOCCOCCn1cc(COCCOCCOCCOCCO)nn1)NCCCC[C@@H](NC(=O)CCCNC(=O)CCOCCOCCn1cc(COCCOCCOCCOCCO)nn1)C(=O)NCCOCCOCCOCCOCCC(=O)Oc1c(F)c(F)c(F)c(F)c1F [Cpd. No. 26532, perfluorophenyl (R)-1-(4-(13-hydroxy-2,5,8,11-tetraoxatridecyl)-1H-1,2,3-triazol-1-yl)-16-(4-(3-(2-(2-(4-(13-hydroxy-2,5,8,11-tetraoxatridecyl)-1H-1,2,3-triazol-1-yl)ethoxy)ethoxy)propanamido)butyl)-9,14,17-trioxo-3,6,21,24,27,30-hexaoxa-10,15,18-triazatritriacontan-33-oate] |  |
| > 1000 | > 450 |  |  | C#CCOCCOCCO[C@]1(C(=O)O)C[C@H](O)[C@@H](NC(=O)CO)[C@H]([C@H](O)[C@H](O)CO)O1 [Cpd. No. 26591, (2R,4S,5R,6R)-4-hydroxy-5-(2-hydroxyacetamido)-2-(2-(2-(prop-2-yn-1-yloxy)ethoxy)ethoxy)-6-((1R,2R)-1,2,3-trihydroxypropyl)tetrahydro-2H-pyran-2-carboxylic acid] |  |
|  |  | Weak | Weak | O=C(CO)N[C@H]1[C@H]([C@H](O)[C@H](O)CO)O[C@@](OCCOCCOCc2cn(CCOCCOCCOCCOCCC(=O)Oc3c(F)c(F)c(F)c(F)c3F)nn2)(C(=O)O)C[C@@H]1O [Cpd. No. 26614, (2R,4S,5R,6R)-4-hydroxy-5-(2-hydroxyacetamido)-2-(2-(2-((1-(15-oxo-15-(perfluorophenoxy)-3,6,9,12-tetraoxapentadecyl)-1H-1,2,3-triazol-4-yl)methoxy)ethoxy)ethoxy)-6-((1R,2R)-1,2,3-trihydroxypropyl)tetrahydro-2H-pyran-2-carboxylic acid] |  |
|  |  | Weak | Weak | O=C(CCOCCOCCn1cc(COCCOCCO[C@]2(C(=O)O)C[C@H](O)[C@@H](NC(=O)CO)[C@H]([C@H](O)[C@H](O)CO)O2)nn1)NCCCC[C@H](NC(=O)CCCNC(=O)CCOCCOCCn1cc(COCCOCCO[C@]2(C(=O)O)C[C@H](O)[C@@H](NC(=O)CO)[C@H]([C@H](O)[C@H](O)CO)O2)nn1)C(=O)NCCOCCOCCOCCOCCC(=O)Oc1c(F)c(F)c(F)c(F)c1F [Cpd. No. 26615] |  |
|  |  | Weak | Weak | O=C(CCOCCOCCn1cc(COCCOCCO[C@]2(C(=O)O)C[C@H](O)[C@@H](NC(=O)CO)[C@H]([C@H](O)[C@H](O)CO)O2)nn1)NCCCC[C@@H](CN[C@@H](CCCCNC(=O)CCOCCOCCn1cc(COCCOCCO[C@]2(C(=O)O)C[C@H](O)[C@@H](NC(=O)CO)[C@H]([C@H](O)[C@H](O)CO)O2)nn1)C(=O)NCCOCCOCCOCCOCCC(=O)Oc1c(F)c(F)c(F)c(F)c1F)NC(=O)CCCNCCCOCCOCCn1cc(COCCOCCO[C@]2(C(=O)O)C[C@H](O)[C@@H](NC(=O)CO)[C@H]([C@H](O)[C@H](O)CO)O2)nn1 [Cpd. No. 26616] |  |
